According to patent US6608082B1, “Treatment of erectile dysfunction using isoquinoline compound melanocortin receptor ligands” (Lion Bioscience AG, priority 1998, dated 2003):
Like-named read-outs stand apart in the source and are kept apart here.

Legend:
[1] = target: T1, MCR-1 (Homo sapiens, UniProt Q01726); assay: Melanocortin receptor binding assay, competition with 125I-HP 467, HEK 293 cells expressing hMCR-1; conditions: for IC50: read-out: MC-1 IC50
T1 construct: expressed in transfected cells; host or cells: HEK 293
How it was run: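 Intact-cell competition binding, 2.5 hr at 37 °C, in PBS/10% calf serum/1 mM CaCl2; hMCR-4 cells at 4×10^3 per tube, hMCR-1 cells at 2×10^4 per tube. Filtration on BSA/CaCl2-soaked GF/B, cold 50 mM Tris pH 7.4 washes, scintillation count.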

[2] = target: T2, MCR-4 (Homo sapiens, UniProt P32245); assay: Melanocortin receptor binding assay, competition with 125I-HP 467, HEK 293 cells expressing hMCR-4; conditions: for IC50: read-out: MC-4 IC50
T2 construct: expressed in transfected cells; host or cells: HEK 293
Description: All cell culture media and reagents were obtained from GibcoBRL (Gaithersburg Md.), except for COSMIC CALF SERUM (HyClone; Logan Utah).
Cells were suspended in PBS, 10% COSMIC CALF SERUM and 1 mM CaCl2. Cell suspensions were prepared at a density of 2×10^4 cells/ml for HEK 293 cells expressing hMCR-3, hMCR-4 or hMCR-5, and 1×10^5 cells/ml for HEK 293 cells expressing hMCR-1. Suspensions were placed in a water bath and allowed to warm to 37° C. for 1 hr.
Binding assays were performed in a total volume of 250 μl for HEK 293 cells. […] To each tube was added 4×10^3 HEK 293 cells expressing hMCR-3, hMCR-4 or hMCR-5, or 2×10^4 cells expressing hMCR-1. Assays were incubated for 2.5 hr at 37° C.
GF/B filter plates were prepared by soaking for at least one hour in 5 mg/ml BSA and 10 mM CaCl2. Assays were filtered using a Brandel 96-well cell harvester (Brandel Inc.; Gaithersburg, Md.). The filters were washed four times with cold 50 mM Tris, pH 7.4, the filter plates were dehydrated for 2 hr and 35 μl of MICROSCINT was added to each well. Filter plates were counted using a Packard Topcount (Packard Instrument Co.) and data analyzed using GraphPad PRISM v2.0 (GraphPad Software Inc.; San Diego Calif.) and Microsoft EXCEL v5.0a (Microsoft Corp.; Redmond Wash.).
To assay isoquinoline compounds, binding assays were performed in duplicate in a 96 well format. […] A 0.2 ml aliquot of suspended cells was added to each well to give the cell numbers indicate above, and the cells were incubated at 37° C. for 2.5 hr. Cells were harvested on GF/B filter plates as described above and counted.

[3] = TRG 2414 library, inhibition of binding of 125I-HP 467, HEK 293 cells expressing MCR-1
[4] = TRG 2414 library, inhibition of binding of 125I-HP 467, HEK 293 cells expressing MCR-4
[5] = inhibition of binding of 125I-HP 467, HEK 293 cells expressing MCR-1, TRG 2414 library
[6] = inhibition of binding of 125I-HP 467, HEK 293 cells expressing MCR-4, TRG 2414 library
[7] = inhibition of binding of 125I-HP 467, HEK 293 cells expressing MCR-1
[8] = inhibition of binding of 125I-HP 467, HEK 293 cells expressing MCR-4
[9] = TRG 2406 and TRG 2407 libraries, inhibition of binding of 125I-HP 467
[10] = TRG 2408 and TRG 2409 libraries, inhibition of 125I-HP 467 binding
[11] = competition with 125I-HP 467, HEK 293 cells expressing MCR-1
[12] = competition with 125I-HP 467, HEK 293 cells expressing MCR-4

T2 sequence (P32245 whole entry): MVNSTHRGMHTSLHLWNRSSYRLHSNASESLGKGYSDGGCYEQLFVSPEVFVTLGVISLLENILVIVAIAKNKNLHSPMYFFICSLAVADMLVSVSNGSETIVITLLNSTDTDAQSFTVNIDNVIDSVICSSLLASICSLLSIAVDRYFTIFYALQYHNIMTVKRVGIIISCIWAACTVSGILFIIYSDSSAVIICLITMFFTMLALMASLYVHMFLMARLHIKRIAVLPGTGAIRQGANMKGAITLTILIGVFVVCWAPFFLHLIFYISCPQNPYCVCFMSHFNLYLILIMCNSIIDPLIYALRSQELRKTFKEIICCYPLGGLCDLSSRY
T1 sequence (Q01726 whole entry): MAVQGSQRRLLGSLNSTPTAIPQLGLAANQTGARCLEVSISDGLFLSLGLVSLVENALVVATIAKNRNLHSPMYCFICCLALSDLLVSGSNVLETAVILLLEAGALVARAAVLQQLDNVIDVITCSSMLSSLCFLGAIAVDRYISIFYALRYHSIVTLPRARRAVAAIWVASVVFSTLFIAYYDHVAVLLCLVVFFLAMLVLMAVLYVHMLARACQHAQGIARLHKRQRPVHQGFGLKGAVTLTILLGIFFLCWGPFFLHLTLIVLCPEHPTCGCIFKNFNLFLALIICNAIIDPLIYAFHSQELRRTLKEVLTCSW

CCCOc1ccc(C2C(CNCCc3ccc(OC)cc3)c3ccccc3CN2CCCCC(CN)NCCc2ccccc2)cc1 (stereo not shown) [Cmpd 186]
IC50 [1, 3]: 2.81 µM
IC50 [2, 4]: 8.09 µM

COc1cccc(CNCC2c3ccccc3CN(CCCCC(N)CN)C2c2ccc(Oc3ccccc3)cc2)c1 (stereo not shown) [TRG 2414-137]
IC50 [1, 5]: 1.21 µM
IC50 [2, 6]: 5.26 µM

CCCOc1ccc(C2C(CNCc3ccc(OC)cc3)c3ccccc3CN2CCCCC(N)CN)cc1 (stereo not shown) [Cmpd 283]
MC-1 IC50 [1, 3]: no fit
MC-4 IC50 [2, 4]: no fit

CCOc1ccccc1CNCC1c2ccccc2CN(CCCCC(CN)NCCc2ccccc2)C1c1ccccc1Br (stereo not shown) [Cmpd 206]
IC50 [1, 3]: 7.04 µM
IC50 [2, 4]: 6.2 µM

CCNc1ccc(C2C(CN)c3ccccc3CN2CCCC(CN)NCC2CC2CNC(C)C)cc1 (stereo not shown) [TRG 2420-25]
IC50 [1, 7]: 0.103 µM
IC50 [2, 8]: 4.82 µM

COc1ccc(CCNCC2c3ccccc3CN(CCCCC(CN)NCCc3ccccc3)C2c2ccccc2Br)cc1 (stereo not shown) [Cmpd 226]
IC50 [1, 3]: 5.17 µM
IC50 [2, 4]: 3.42 µM

CCCOc1ccc(C2C(CNCc3ccccc3C(F)(F)F)c3ccccc3CN2CCCCC(CN)NCC(C)c2ccc(CC(C)C)cc2)cc1 (stereo not shown) [TRG 2414-164]
MC-1 IC50 [1, 5]: no fit
MC-4 IC50 [2, 6]: no fit

CNC(CN)CCCCN1Cc2ccccc2C(CNCc2ccccc2C(F)(F)F)C1c1ccc(Cl)cc1Cl (stereo not shown) [TRG 2407-13]
IC50 [1, 9]: 8.5 µM
IC50 [2, 9]: 9.25 µM

CC(C)Cc1ccc(C(C)CNC(CN)CCCCN2Cc3ccccc3C(CNCCc3cccc(Cl)c3)C2c2ccccc2Br)cc1 (stereo not shown) [Cmpd 216]
IC50 [1, 3]: 48.3 µM
IC50 [2, 4]: 39 µM

CNCCNC(CN)CCN1Cc2ccccc2C(CNC2CCCCC2)C1c1ccc(Cl)cc1Cl (stereo not shown) [TRG 2408-104]
IC50 [1, 10]: 5.65 µM
IC50 [2, 10]: 9.06 µM

CCCOc1ccc(C2C(CNCc3ccccc3)c3ccccc3CN2CCCCC(CN)NCC(C)c2ccc(CC(C)C)cc2)cc1 (mixture of isomers) [Cmpd 192]
IC50 [1, 3]: 11.4 µM
IC50 [2, 4]: 16 µM

COc1ccccc1CCNCC1c2ccccc2CN(CCCCC(CN)NCc2ccccc2)C1c1cccc(Oc2ccccc2)c1 (stereo not shown) [TRG 2414-91]
IC50 [1, 5]: 3.21 µM
IC50 [2, 6]: 2.74 µM

CCCCNc1ccc(C2C(CNC3CCCCC3)c3ccccc3CN2CCCC(CN)NCCc2ccc3ccccc3c2)cc1 (stereo not shown) [TRG 2411-213]
IC50 [1, 7]: 0.22 µM
IC50 [2, 8]: 1.95 µM

CCCCNc1ccc(C2C(CNCCc3ccccc3)c3ccccc3CN2CCCCC(CN)NCCc2ccc3ccccc3c2)cc1 (stereo not shown) [TRG 2411-83]
IC50 [1, 11]: 0.57 µM
IC50 [2, 12]: 1.06 µM

COc1cccc(CNCC2c3ccccc3CN(CCCCC(CN)NCc3ccccc3)C2c2ccc(Oc3ccccc3)cc2)c1 (stereo not shown) [TRG 2414-139]
IC50 [1, 5]: 0.788 µM
IC50 [2, 6]: 12.6 µM

CC(C)Cc1ccc(C(C)CNC(CN)CCCCN2Cc3ccccc3C(CNCc3ccccc3)C2c2cccc(Oc3ccccc3)c2)cc1 (stereo not shown) [TRG 2414-112]
MC-1 IC50 [1, 5]: no fit
IC50 [2, 6]: 51.3 µM

CCCCNc1ccc(C2C(CN)c3ccccc3CN2CCCC(CN)NCCc2ccccc2)cc1 (stereo not shown) [TRG 2409-221]
IC50 [1, 11]: 0.08 µM
IC50 [2, 12]: 0.85 µM

NCC(CCCCN1Cc2ccccc2C(CNCc2ccccc2)C1c1ccc(Oc2ccccc2)cc1)NCCc1ccccc1 (stereo not shown) [TRG 2414-150]
IC50 [1, 5]: 9.42 µM
IC50 [2, 6]: 16.3 µM

NCC(CCCN1Cc2ccccc2C(CN)C1c1ccc(-c2ccccc2)cc1)NCC1CCCCC1 (stereo not shown) [TRG 2411-148]
IC50 [1, 11]: 0.96 µM
IC50 [2, 12]: 1.96 µM

NCC(CCCN1Cc2ccccc2C(CN)C1c1ccc(O)cc1)NCCC1CCCCC1 (stereo not shown) [TRG 2415-9]
IC50 [1, 7]: 3 µM
IC50 [2, 8]: 1.95 µM

Cc1ccc(CNC(CN)CCCCN2Cc3ccccc3C(CNCCc3ccccc3)C2c2cc(C(F)(F)F)cc(C(F)(F)F)c2)cc1 (mixture of isomers) [TRG 2421-2]
IC50 [1, 7]: 3.73 µM
IC50 [2, 8]: 3.03 µM

CCCCOc1ccc(C2C(CO)c3ccccc3CN2CCCC(CN)NCCC2CCCCC2)cc1 (stereo not shown) [TRG 2415-6]
IC50 [1, 7]: 2.39 µM
IC50 [2, 8]: 5 µM

NCC(CCCCN1Cc2ccccc2C(CNC2CCCCCC2)C1c1ccc(Cl)cc1Cl)NCc1ccccc1 (stereo not shown) [TRG 2414-35]
IC50 [1, 5]: 2.17 µM
IC50 [2, 6]: 5.67 µM

NCC(N)CCCCN1Cc2ccccc2C(CNC2CCCCCC2)C1c1cc(C(F)(F)F)cc(C(F)(F)F)c1 (stereo not shown) [TRG 2414-73]
IC50 [1, 5]: 5.77 µM
IC50 [2, 6]: 1.01 µM

NCC(CCCCN1Cc2ccccc2C(CNCc2ccccc2)C1c1ccccc1Br)NCCc1ccccc1 (stereo not shown) [Cmpd 230]
IC50 [1, 3]: 6.48 µM
IC50 [2, 4]: 5.46 µM

COc1cccc(CNCC2c3ccccc3CN(CCCCC(CN)NCc3ccccc3)C2c2cccc(Oc3ccccc3)c2)c1 (stereo not shown) [TRG 2414-99]
IC50 [1, 5]: 5.86 µM
IC50 [2, 6]: 6.93 µM

CNC(CN)CCCCN1Cc2ccccc2C(CNC(C)C)C1c1ccc(-c2ccccc2)cc1 (stereo not shown) [TRG 2407-28]
IC50 [1, 9]: 0.31 µM
IC50 [2, 9]: 3.6 µM

CCCOc1ccc(C2C(CNCCc3cccc(Cl)c3)c3ccccc3CN2CCCCC(CN)NCc2ccccc2)cc1 (stereo not shown) [TRG 2414-175]
IC50 [1, 5]: 4.14 µM
IC50 [2, 6]: 6.08 µM

NCC(N)CCCCN1Cc2ccccc2C(CNCCc2cccc(Cl)c2)C1c1ccc(Cl)cc1Cl (stereo not shown) [Cmpd 244]
IC50 [1, 3]: 44.1 µM
MC-4 IC50 [2, 4]: no fit

CCOc1ccccc1CNCC1c2ccccc2CN(CCCCC(CN)NCC(C)c2ccc(CC(C)C)cc2)C1c1ccccc1Br (stereo not shown) [Cmpd 208]
IC50 [1, 3]: 34.4 µM
IC50 [2, 4]: 21.1 µM

CC(C)Cc1ccc(C(C)CNC(CN)CCCCN2Cc3ccccc3C(CNC3CCCCC3)C2c2ccc(Cl)cc2Cl)cc1 (stereo not shown) [TRG 2414-40]
IC50 [1, 5]: 8.64 µM
IC50 [2, 6]: 17.5 µM

CNC(CN)CCCCN1Cc2ccccc2C(CNCc2ccccc2O)C1c1ccc(Oc2ccccc2)cc1 (stereo not shown) [TRG 2406-13]
IC50 [1, 9]: 0.18 µM
IC50 [2, 9]: 1.29 µM

CNC(CN)CCCCN1Cc2ccccc2C(CNCc2ccccc2OC)C1c1ccc(Cl)cc1Cl (mixture of isomers) [TRG 2407-14]
IC50 [1, 9]: 0.37 µM
IC50 [2, 9]: 0.41 µM

CCOc1cccc(NCC2c3ccccc3CN(CCCCC(CN)NC)C2c2ccc(Cl)cc2Cl)c1 (stereo not shown) [TRG 2407-6]
IC50 [1, 9]: 3.42 µM
IC50 [2, 9]: 6.97 µM

NCC(CCCCN1Cc2ccccc2C(CNC2CCCCC2)C1c1cc(C(F)(F)F)cc(C(F)(F)F)c1)NCCc1ccccc1 (stereo not shown) [TRG 2414-78]
IC50 [1, 5]: 6.28 µM
IC50 [2, 6]: 4.26 µM

CCNc1ccc(C2C(CNC3CCCCC3)c3ccccc3CN2CCCCC(CN)NCCN)cc1 (mixture of isomers) [TRG 2408-7]
IC50 [1, 10]: 1.3 µM
IC50 [2, 10]: 44.5 µM

NCC(N)CCCCN1Cc2ccccc2C(CNCCc2cccc(Cl)c2)C1c1ccc(Oc2ccccc2)cc1 (stereo not shown) [TRG 2414-133]
IC50 [1, 5]: 5.8 µM
IC50 [2, 6]: 15.9 µM

CCOc1ccccc1CNCC1c2ccccc2CN(CCCCC(CN)NCc2ccccc2)C1c1ccc(Oc2ccccc2)cc1 (stereo not shown) [TRG 2414-127]
IC50 [1, 5]: 2.14 µM
IC50 [2, 6]: 26.8 µM
